This note sets out measurements from patent publication US8546420B2, “4, 5-ring annulated indole derivatives for treating or preventing of HCV and related viral infections” (Merck Sharp & Dohme Corp., priority 2006, dated 2013).

The test system of one assay is HCV replicon cells. The experiment in a line: Cell-Based HCV Replicon Assay. As to conditions: Hepatitis C virus, 72 h; replicon RNA level by real time PCR (Taqman), cells harvested on day 3. As to the method:
To measure cell-based anti-HCV activity of the a Compound of Formula (I), replicon cells were seeded at 5000 cells/well in 96-well collagen I-coated Nunc plates in the presence of the Compound of Formula (I). Various concentrations of a Compound of Formula (I), typically in 10 serial 2-fold dilutions, were added to the assay mixture, the starting concentration of the compound ranging from 250 μM to 1 μM. The final concentration of DMSO was 0.5%, fetal bovine serum was 5%, in the assay media. Cells were harvested on day 3 by the addition of 1× cell lysis buffer (Ambion cat #8721). The replicon RNA level was measured using real time PCR (Taqman assay). The amplicon was located in 5B. The PCR primers were: 5B.2F, ATGGACAGGCGCCCTGA; 5B.2R, […]; the probe sequence was FAM-labeled CACGCCATGCGCTGCGG. GAPDH RNA was used as endogenous control and was amplified in the same reaction as NS5B (multiplex PCR) using primers and VIC-labeled probe recommended by the manufacturer (PE Applied Biosystem). The real-time RT-PCR reactions were run on ABI PRISM 7900HT Sequence Detection System using the following program: 48° C. for 30 min, 95° C. for 10 min, 40 cycles of 95° C. for 15 sec, 60° C. for 1 min. The ACT values (CT5B-CTGAPDH) were plotted against the concentration of test compound and fitted to the sigmoid dose-response model using XLfit4 (MDL). EC50 was defined as the concentration of inhibitor necessary to achieve ΔCT=1 over the projected baseline; EC90 the concentration necessary to achieve […] over the baseline. Alternatively, to quantitate the absolute amount of replicon RNA, a standard curve was established by including serially diluted T7 transcripts of replicon RNA in the Taqman assay. All Taqman reagents were from PE Applied Biosystems. Such an assay procedure was described in detail in e.g. Malcolm et al., Antimicrobial Agents and Chemotherapy 50: 1013-1020 (2006).
HCV Replicon assay data for selected Compounds of Formula (I) is provided below in Table 3, wherein the compound numbers correspond to the compound numbering set forth in the above specification. The data is designated as follows: “A” for EC50 values less than 1.0 micromolar (μM), “B” for EC50 values between 1.0 and 10.0 μM and “C” for EC50 values greater than 10.0 μM.

The target of a further assay is T1, HCV NS5B polymerase (Hepatitis C virus genotype 1b, UniProt P26663).
T1 construct: A soluble C-terminal 21-amino acid truncated NS5B enzyme form; polyhistidine (C); made in house; host or cells: Escherichia coli
T1 sequence (P26663 2420-2989): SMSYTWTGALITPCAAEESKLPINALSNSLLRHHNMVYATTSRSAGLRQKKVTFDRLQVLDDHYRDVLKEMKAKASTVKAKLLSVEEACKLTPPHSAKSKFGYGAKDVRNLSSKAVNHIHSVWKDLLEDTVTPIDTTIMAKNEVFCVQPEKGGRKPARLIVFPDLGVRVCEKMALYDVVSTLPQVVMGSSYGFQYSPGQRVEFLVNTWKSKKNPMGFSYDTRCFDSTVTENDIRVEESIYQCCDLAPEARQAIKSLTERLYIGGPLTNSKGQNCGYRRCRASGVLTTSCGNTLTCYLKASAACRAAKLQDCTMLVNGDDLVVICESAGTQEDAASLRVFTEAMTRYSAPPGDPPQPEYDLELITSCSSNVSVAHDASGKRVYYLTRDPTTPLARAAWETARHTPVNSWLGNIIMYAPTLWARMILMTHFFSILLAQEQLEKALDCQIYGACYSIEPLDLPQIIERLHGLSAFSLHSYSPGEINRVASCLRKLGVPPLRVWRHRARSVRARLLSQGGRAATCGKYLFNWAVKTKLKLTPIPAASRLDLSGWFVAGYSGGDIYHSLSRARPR
In words: HCV NS5B Polymerase Inhibition Assay. The format is biochemical. The text has this: A chemically synthesized 75-mer version, designated DCoH75, whose sequence matches the 3′-end of D-RNA, and DCoH75ddC, where the 3′-terminal cytidine of DCoH75 is replaced by dideoxycytidine, were used for assaying the NS5B enzyme activity as described in Ferrari et al., 12th International Symposium on HCV and Related Viruses, P-306 (2005). A soluble C-terminal 21-amino acid truncated NS5B enzyme form (NS5B[…]CT21) was produced and purified from Escherichia coli as C-terminal polyhistidine-tagged fusion protein as described in Ferrari et al., J. Virol. 73:1649-1654 (1999). A typical assay contained 20 mM Hepes pH 7.3, 10 mM MgCl2, 60 mM NaCl, 100 μg/ml BSA, 20 units/ml RNasin, 7.5 mM DTT, 0.1 μM ATP/GTP/UTP, 0.026 μM CTP, 0.25 mM GAU, 0.03 μM RNA template, 20 μCi/ml [^33P]-CTP, 2% DMSO, and 30 or 150 nM NS5B enzyme. Reactions were incubated at 22° C. for 2 hours, then stopped by adding 150 mM EDTA, washed in DE81 filter plate in 0.5M di-basic sodium phosphate buffer, pH 7.0, and counted using Packard TopCount after the addition of scintillation cocktail. Polynucleotide synthesis was monitored by the incorporation of radiolabeled CTP. The effect of the Compounds of Formula (I) on the polymerase activity was evaluated by adding various concentrations of a Compound of Formula (I), typically in 10 serial 2-fold dilutions, to the assay mixture. The starting concentrations of the indole derivatives ranged from 200 μM to 1 μM. An IC50 value for the inhibitor, defined as the compound concentration that provides 50% inhibition of polymerase activity, was determined by fitting the cpm data to the Hill equation Y=100/(1+10^((Log IC50−X)*HillSlope)), where X is the logarithm of compound concentration, and Y is the % inhibition. Ferrari et al., 12th International Symposium on HCV and Related Viruses, P-306 (2005) described in detail this assay procedure. It should be noted that such an assay as described is exemplary and not intended to limit the scope of the invention. The skilled practitioner can appreciate that modifications including but not limited to RNA template, primer, nucleotides, NS5B polymerase form, buffer composition, can be made to develop similar assays that yield the same result for the efficacy of the compounds and compositions described in the invention.
NS5B polymerase inhibition data for selected Compounds of Formula (I) is provided below in Table 2, wherein the compound numbers correspond to the compound numbering set forth in the above specification.

As a reminder, the EC50 is the midpoint of the concentration-response curve. A higher EC50 goes with a need for much substance. As a reminder, the IC50 is the concentration that gives 50% inhibition. Low values mean higher potency, high ones lower potency. Take `Nc1ccccc1Cn1c(C(=O)O)c(-c2ccccc2F)c2c3ccccc3ccc21` [Compound 1]: the EC50 with HCV replicon cells is greater than 10 µM. Further, the IC50 on HCV NS5B polymerase was greater than 0.1 µM. `O=C(O)c1c(-c2ccccc2F)c2c3ccccc3ccc2n1Cc1ccccc1` [Compound 2] came in with an IC50 on HCV NS5B polymerase greater than 0.1 µM.

Take `Nc1cc(Cn2c(C(=O)O)c(-c3ccccc3F)c3c4ccccc4ccc32)ccn1` [Compound 3]: the EC50 in the assay with HCV replicon cells lay within 1 to 10 µM. At HCV NS5B polymerase, this compound gave an IC50 greater than 0.1 µM. With `Nc1cc(Cn2c(C(=O)O)c(-c3ccc[nH]c3=O)c3c4ccccc4ccc32)ccn1` [Compound 4], in the assay on HCV replicon cells, the EC50 lay in the range of 1 to 10 µM. In addition, the IC50 against HCV NS5B polymerase is greater than 0.1 µM. Taken in the same sequence, the figures for `Nc1cc(Cn2c(C(=O)O)c(-c3ccccc3F)c3c4ccccc4ccc32)ncn1` [Compound 5] were greater than 10 µM and greater than 0.1 µM. Taken in the same sequence, the figures for `CS(=O)(=O)NC(=O)c1c(-c2ccc[nH]c2=O)c2c3ccccc3ccc2n1Cc1ccnc(N)c1` [Compound 6] were greater than 10 µM and 0.025 to 0.1 µM. Taken in the same sequence, the figures for `O=C(O)c1cccc(Cn2c(C(=O)O)c(-c3ccccc3F)c3c4ccccc4ccc32)c1` [Compound 7] were greater than 10 µM and greater than 0.1 µM. `O=C(O)c1cccc(Cn2c(C(=O)O)c(-c3ccc[nH]c3=O)c3c4ccccc4ccc32)c1` [Compound 8] yielded an IC50 at HCV NS5B polymerase greater than 0.1 µM. Still for that read-out and setting: the figure for `CS(=O)(=O)NC(=O)c1cccc(Cn2c(C(=O)NS(C)(=O)=O)c(-c3ccc[nH]c3=O)c3c4ccccc4ccc32)c1` [Compound 9] is 0.025 to 0.1 µM. In turn, `COC(=O)c1cccc(Cn2c(C(=O)NS(C)(=O)=O)c(-c3ccc[nH]c3=O)c3c4ccccc4ccc32)c1` [Compound 10] had an EC50 in the assay on HCV replicon cells of 1 to 10 µM. The same compound gave an IC50 against HCV NS5B polymerase of less than 0.025 µM. In the case of `Nc1cc(Cn2c(C(=O)NS(=O)(=O)c3ccccc3)c(-c3ccc[nH]c3=O)c3c4ccccc4ccc32)ccn1` [Compound 11], the EC50 in the assay on HCV replicon cells fell in the range of 1 to 10 µM. Besides, the 50% inhibitory concentration (IC50) against HCV NS5B polymerase was in the range of 0.025 to 0.1 µM. The corresponding values for `CS(=O)(=O)NC(=O)c1c(-c2ccc[nH]c2=O)c2c3ccccc3ccc2n1Cc1cccc(C(=O)O)c1` [Compound 12] are greater than 10 µM and less than 0.025 µM. On to `CC(C)(C)S(=O)(=O)NC(=O)c1c(-c2ccc[nH]c2=O)c2c3ccccc3ccc2n1Cc1ccnc(N)c1` [Compound 13], for which the IC50 against HCV NS5B polymerase lay within 0.025 to 0.1 µM. In the assay with HCV replicon cells, `CCS(=O)(=O)NC(=O)c1c(-c2ccc[nH]c2=O)c2c3ccccc3ccc2n1Cc1ccnc(N)c1` [Compound 14] came in with an EC50 of 1 to 10 µM. In addition, at HCV NS5B polymerase, the IC50 lay within 0.025 to 0.1 µM.

Turning to `Nc1cc(Cn2c(C(=O)NS(=O)(=O)c3ccc(O)cc3)c(-c3ccc[nH]c3=O)c3c4ccccc4ccc32)ccn1` [Compound 15], in the assay on HCV replicon cells, the EC50 was 1 to 10 µM. The IC50 at HCV NS5B polymerase fell in the range of 0.025 to 0.1 µM. `CS(=O)(=O)Nc1cccc(S(=O)(=O)NC(=O)c2c(-c3ccc[nH]c3=O)c3c4ccccc4ccc3n2Cc2ccc(F)cc2F)c1` [Compound 16] returned an EC50 in the assay on HCV replicon cells of less than 1 µM. This compound also registered an IC50 against HCV NS5B polymerase of less than 0.025 µM.

Take `O=C(O)c1c(-c2ccc[nH]c2=O)c2c3ncccc3ccc2n1Cc1cc(F)ccc1F` [Compound 17]: the EC50 in the assay with HCV replicon cells is 1 to 10 µM. Further, the concentration for half-maximal inhibition (IC50) at HCV NS5B polymerase fell in the range of 0.025 to 0.1 µM.

As to `O=C(O)c1c(-c2ccc[nH]c2=O)c2c3ncccc3ccc2n1Cc1ccccc1F` [Compound 18], the EC50 in the assay on HCV replicon cells fell in the range of 1 to 10 µM. Further, on HCV NS5B polymerase, the IC50 was greater than 0.1 µM. Consider `O=C(O)c1c(-c2ccc[nH]c2=O)c2c3ncccc3ccc2n1Cc1ccc(F)cc1F` [Compound 19], for which the IC50 against HCV NS5B polymerase was greater than 0.1 µM. The compound `CS(=O)(=O)NC(=O)c1c(-c2ccc[nH]c2=O)c2c3c(ccc2n1Cc1cc(F)ccc1F)OCCO3` [Compound 20] registered an EC50 in the assay with HCV replicon cells of less than 1 µM. Moreover, the IC50 against HCV NS5B polymerase was less than 0.025 µM. In the case of `CS(=O)(=O)NC(=O)c1c(-c2ccc[nH]c2=O)c2c3c(ccc2n1Cc1ccccc1F)CCCO3` [Compound 21], in the assay with HCV replicon cells, the EC50 is less than 1 µM. For the same compound, at HCV NS5B polymerase, the IC50 was less than 0.025 µM. Compound `O=C(O)c1c(-c2ccc[nH]c2=O)c2c3c(ccc2n1Cc1ccccc1F)CCCO3` [Compound 22] yielded an EC50 with HCV replicon cells of less than 1 µM. The IC50 at HCV NS5B polymerase was less than 0.025 µM. The corresponding values for `O=C(O)c1c(-c2ccc[nH]c2=O)c2c3c(ccc2n1Cc1ccccc1F)OCCO3` [Compound 23] are 1 to 10 µM and less than 0.025 µM.

The compound `O=C(O)c1c(-c2ccc[nH]c2=O)c2c3ccccc3c(F)cc2n1Cc1ccccc1F` [Compound 24] had an EC50 with HCV replicon cells of 1 to 10 µM. Besides, the IC50 against HCV NS5B polymerase fell in the range of 0.025 to 0.1 µM.

In the assay with HCV replicon cells, `O=C(O)c1c(-c2ccc[nH]c2=O)c2c3c(ccc2n1Cc1cc(F)ccc1F)CCCO3` [Compound 25] gave an EC50 of less than 1 µM. In addition, the IC50 against HCV NS5B polymerase is less than 0.025 µM. `O=C(O)c1c(-c2ccc[nH]c2=O)c2c3c(ccc2n1Cc1cc(F)ccc1F)OCCO3` [Compound 26] gave an EC50 in the assay on HCV replicon cells of less than 1 µM. Besides, the IC50 on HCV NS5B polymerase is less than 0.025 µM. The corresponding values for `O=C(O)c1c(-c2ccc[nH]c2=O)c2c3ccccc3c(F)cc2n1Cc1cc([N+](=O)[O-])ccc1F` [Compound 27] are less than 1 µM and 0.025 to 0.1 µM. In the case of `CS(=O)(=O)NC(=O)c1c(-c2ccc[nH]c2=O)c2c3c(ccc2n1Cc1ccccc1F)OCCO3` [Compound 28], the EC50 in the assay on HCV replicon cells was less than 1 µM. For the same compound, the IC50 against HCV NS5B polymerase is less than 0.025 µM. Taken in the same sequence, the figures for `CS(=O)(=O)NC(=O)c1c(-c2ccc[nH]c2=O)c2c3c(ccc2n1Cc1cc(F)ccc1F)CCCO3` [Compound 29] were less than 1 µM and less than 0.025 µM. The corresponding values for `O=C(NS(=O)(=O)C1CC1)c1c(-c2ccc[nH]c2=O)c2c3c(ccc2n1Cc1ccccc1F)CCCO3` [Compound 30] are less than 1 µM and less than 0.025 µM.

In the case of `O=C(NS(=O)(=O)C1CC1)c1c(-c2ccc[nH]c2=O)c2c3ccccc3c(F)cc2n1Cc1ccccc1F` [Compound 31], the EC50 in the assay with HCV replicon cells is less than 1 µM. The same compound returned an IC50 at HCV NS5B polymerase of less than 0.025 µM. Turning to `O=C(NS(=O)(=O)C1CC1)c1c(-c2ccc[nH]c2=O)c2c3c(ccc2n1Cc1cc(F)ccc1F)CCCO3` [Compound 32], the EC50 in the assay with HCV replicon cells was less than 1 µM. Further, at HCV NS5B polymerase, the IC50 is less than 0.025 µM.

`O=C(NS(=O)(=O)C1CC1)c1c(-c2ccc[nH]c2=O)c2c3ccccc3c(F)cc2n1Cc1cc([N+](=O)[O-])ccc1F` [Compound 33]: the EC50 in the assay with HCV replicon cells was less than 1 µM. Further, the 50% inhibitory concentration (IC50) at HCV NS5B polymerase was less than 0.025 µM.
